Laboratory results: patent US20220378706A1, “PHARMACEUTICAL COMPOSITION COMPRISING PDE9 INHIBITOR” (Eisai R&D Management Co., Ltd., priority 2017, published 2022)
Where two headings read alike, the source gives them in different places.

Test: Single dose clinical study: plasma Compound A pharmacokinetics
Format: in vivo, human
Conditions: human, plasma
Method: This was a single center, single dose, randomized, double blind, placebo controlled study in healthy subjects. It consisted of 4 parts: Parts A, B, C, and D. Each of the four study parts had 2 phases: Prerandomization Phase and Randomization Phase. The Prerandomization Phase lasted up to 30 days and consisted of a Screening Period and a Baseline Period, during which each subject's study eligibility was determined and baseline assessments were performed.
In Part A, there were 8 sequential cohorts of healthy adult subjects (18-50 years of age). Subjects were randomly assigned to Compound A or placebo in a ratio of 6:2, respectively. Subjects in the Compound A cohorts were treated with single ascending doses of 10, 25, 50, 100, 200, 400, 800, or 1200 mg.
In Part B, there were 4 cohorts of healthy adult subjects (18-50 years of age). There were 8 subjects in Cohort 1, with 6 subjects randomly assigned to receive single doses of Compound A (400 mg) and 2 subjects randomly assigned to receive placebo. There were 7 subjects in Cohort 2 and Cohort 3, each with 6 subjects randomly assigned to receive single doses of Compound A (100 and 200 mg, respectively) and 1 subject randomly assigned to receive placebo. The dose of 100 mg selected in Cohort 2 was based on preliminary analysis of Cohort 1 data; this dose was predicted from PK/PD modeling to achieve a sustained CSF cGMP increase from baseline of approximately 200% when administered to steady state, and thereby provided a potentially therapeutic dose for further evaluation in future studies. There were 7 subjects in Cohort 4, with 6 subjects randomly assigned to receive a single dose of Compound A (50 mg [n=3] or 75 mg [n=3]) and 1 subject randomly assigned to receive placebo. The doses for Cohorts 3 and 4 were selected based on PK/PD modeling of the data in Cohorts 1 and 2.
Subjects in Cohort 2 who had received Compound A 100 mg or placebo under fasted conditions (1st Treatment Period) also participated in an evaluation of food effect on the PK of Compound A (2nd Treatment Period). After a washout period of at least 13 days (or 5 half-lives of Compound A, whichever was longer), subjects were admitted to the clinic for baseline assessments (2nd Baseline Period) and then received a single dose of the same treatment (Compound A 100 mg or placebo) after consuming a high fat and high calorie meal over 30 minutes. Blood PK samples were collected at prespecified time points. Safety evaluations were also assessed. CSF was not collected for PD evaluation during the 2nd Treatment Period. A Follow Up Visit occurred on Day 10 of Treatment Period 2.
In Part C, there was 1 cohort of 8 healthy elderly subjects (65 to 85 years of age) randomly assigned to receive a single dose of Compound A 100 mg or placebo in a ratio of 6:2, respectively.
In Part D, 3 cohorts of healthy adult Japanese subjects were randomized in parallel. There were 7 subjects in each cohort and subjects were randomly assigned to receive single doses of Compound A (25, 100, or 400 mg) or placebo in a ratio of 6:1, respectively.
Blood samples for determination of plasma Compound A concentrations were collected from predose to 216 hours postdose. On Day 1, blood PK samples were collected at predose and postdose 0.5 (30 minutes), 1, 1.5, 2, 3, 4, 5, 6, 8, 12, and 18 hours. Thereafter, samples were collected on Day 2 (24 and 36 hours postdose), Day 3 (48 hours postdose), Day 4 (72 hours postdose), Day 5 (96 hours postdose), Day 6 (120 hours postdose), Day 7 (144 hours postdose), and Day 10 (216 hours postdose).
Blood samples for determination of plasma Compound A concentrations were collected from predose to 216 hours postdose. For all cohorts, blood PK samples were collected on Day 1 at predose and postdose at 0.5 (30 minutes), 1, 1.5, 2, 3, 4, 5, 6, 8, 10, 12, and 18 hours. […]

With `COc1ncc(C)c(-c2ccc3c(c2)[nH]c(=O)c2cnn([C@H]4CCOC4)c23)c1C` [Compound A, (S)-7-(2-methoxy-3,5-dimethylpyridin-4-yl)-1-(tetrahydrofuran-3-yl)-1H-pyrazolo[4,3-c]quin olin-4(5H)-one] the Cmax (oral, 400 mg, non-Japanese, 400 mg, with weight as covariate, read-out: Cmax Geometric LS Means Reference) was 0.833 µg/mL, the AUC (oral, 400 mg, non-Japanese, 400 mg, without weight as covariate, read-out: AUC(O-inf) Geometric LS Means Reference) was 35.8 µg·h/mL and the Cmax (oral, 400 mg, non-Japanese, 400 mg, without weight as covariate, read-out: Cmax Geometric LS Means Reference) was 0.827 µg/mL. It also gave a half-life (oral, single doses of 10 to 1200 mg, read-out: Mean t1/2 across all doses) of 26.8 to 33.6 h, a Tmax (oral, single doses of 10 to 1200 mg, read-out: median plasma tmax across all doses) of 2 to 4 h and an AUC(0-t) (po, 10 mg, healthy adults (Parts A,B), single oral 10 mg, fasted, read-out: AUC(0-24 h) GM) of 0.719 µg·h/mL. It also gave an AUC(0-t) (po, 10 mg, healthy adults (Parts A,B), single oral 10 mg, fasted, read-out: AUC(0-30 h) GM) of 0.863 µg·h/mL, an AUC(0-t) (po, 10 mg, healthy adults (Parts A,B), single oral 10 mg, fasted, read-out: AUC(0-72 h) GM) of 1.43 µg·h/mL and an AUC(0-inf) (po, 10 mg, healthy adults (Parts A,B), single oral 10 mg, fasted, read-out: AUC(0-inf) GM) of 1.84 µg·h/mL. The AUC(0-t) (po, 10 mg, healthy adults (Parts A,B), single oral 10 mg, fasted, read-out: AUC(0-t) GM) was 1.7 µg·h/mL, the Cmax (po, 10 mg, healthy adults (Parts A,B), single oral 10 mg, fasted, read-out: Cmax GM) was 0.0602 µg/mL and the Vd/F (po, 10 mg, healthy adults (Parts A,B), single oral 10 mg, fasted, read-out: Vz/F GM) was 255 L. For the same compound, the half-life (po, 10 mg, healthy adults (Parts A,B), single oral 10 mg, fasted, read-out: t1/2 Mean (converted)) was 33.6 h, the Tmax (po, 10 mg, healthy adults (Parts A,B), single oral 10 mg, fasted, read-out: tmax Median) was 2.27 h and the AUC(0-inf) (po, 25 mg, Japanese Subjects (Part D), single oral 25 mg, read-out: AUC(0-inf) GM) was 4.58 µg·h/mL. For the same compound, the Cmax (po, 25 mg, Japanese Subjects (Part D), single oral 25 mg, read-out: Cmax GM (% CV)) was 0.212 µg/mL, the Vd/F (po, 25 mg, Japanese Subjects (Part D), single oral 25 mg, read-out: Vz/F GM (% CV)) was 165 L and the half-life (po, 25 mg, Japanese Subjects (Part D), single oral 25 mg, read-out: t1/2 Mean (SD) (converted)) was 21.5 h. The Tmax (po, 25 mg, Japanese Subjects (Part D), single oral 25 mg, read-out: tmax Median) was 2.08 h, the AUC(0-inf) (po, 25 mg, Non-Japanese Subjects (Parts A,B), single oral 25 mg, read-out: AUC(0-inf) GM) was 4.34 µg·h/mL and the Cmax (po, 25 mg, Non-Japanese Subjects (Parts A,B), single oral 25 mg, read-out: Cmax GM (% CV)) was 0.152 µg/mL. It also gave a Vd/F (po, 25 mg, Non-Japanese Subjects (Parts A,B), single oral 25 mg, read-out: Vz/F GM (% CV)) of 216 L, a half-life (po, 25 mg, Non-Japanese Subjects (Parts A,B), single oral 25 mg, read-out: t1/2 Mean (SD) (converted)) of 26.8 h and a Tmax (po, 25 mg, Non-Japanese Subjects (Parts A,B), single oral 25 mg, read-out: tmax Median) of 2.65 h. For the same compound, the AUC(0-t) (po, 25 mg, healthy adults (Parts A,B), single oral 25 mg, fasted, read-out: AUC(0-24 h) GM) was 1.85 µg·h/mL, the AUC(0-t) (po, 25 mg, healthy adults (Parts A,B), single oral 25 mg, fasted, read-out: AUC(0-30 h) GM) was 2.2 µg·h/mL and the AUC(0-t) (po, 25 mg, healthy adults (Parts A,B), single oral 25 mg, fasted, read-out: AUC(0-72 h) GM) was 3.57 µg·h/mL. The AUC(0-inf) (po, 25 mg, healthy adults (Parts A,B), single oral 25 mg, fasted, read-out: AUC(0-inf) GM) was 4.34 µg·h/mL, the AUC(0-t) (po, 25 mg, healthy adults (Parts A,B), single oral 25 mg, fasted, read-out: AUC(0-t) GM) was 4.2 µg·h/mL and the Cmax (po, 25 mg, healthy adults (Parts A,B), single oral 25 mg, fasted, read-out: Cmax GM) was 0.152 µg/mL. The Vd/F (po, 25 mg, healthy adults (Parts A,B), single oral 25 mg, fasted, read-out: Vz/F GM) was 216 L, the half-life (po, 25 mg, healthy adults (Parts A,B), single oral 25 mg, fasted, read-out: t1/2 Mean (converted)) was 26.8 h and the Tmax (po, 25 mg, healthy adults (Parts A,B), single oral 25 mg, fasted, read-out: tmax Median) was 2.65 h. The AUC(0-t) (po, 50 mg, healthy adults (Parts A,B), single oral 50 mg, fasted, read-out: AUC(0-24 h) GM) was 3.37 µg·h/mL, the AUC(0-t) (po, 50 mg, healthy adults (Parts A,B), single oral 50 mg, fasted, read-out: AUC(0-30 h) GM) was 4.01 µg·h/mL and the AUC(0-t) (po, 50 mg, healthy adults (Parts A,B), single oral 50 mg, fasted, read-out: AUC(0-72 h) GM) was 6.49 µg·h/mL. It also gave an AUC(0-inf) (po, 50 mg, healthy adults (Parts A,B), single oral 50 mg, fasted, read-out: AUC(0-inf) GM) of 7.9 µg·h/mL, an AUC(0-t) (po, 50 mg, healthy adults (Parts A,B), single oral 50 mg, fasted, read-out: AUC(0-t) GM) of 7.72 µg·h/mL and a Cmax (po, 50 mg, healthy adults (Parts A,B), single oral 50 mg, fasted, read-out: Cmax GM) of 0.225 µg/mL. The Vd/F (po, 50 mg, healthy adults (Parts A,B), single oral 50 mg, fasted, read-out: Vz/F GM) was 233 L, the half-life (po, 50 mg, healthy adults (Parts A,B), single oral 50 mg, fasted, read-out: t1/2 Mean (converted)) was 26.9 h and the Tmax (po, 50 mg, healthy adults (Parts A,B), single oral 50 mg, fasted, read-out: tmax Median) was 4 h. For the same compound, the AUC(0-t) (po, 75 mg, healthy adults (Parts A,B), single oral 75 mg, fasted, read-out: AUC(0-24 h) GM) was 3.65 µg·h/mL, the AUC(0-t) (po, 75 mg, healthy adults (Parts A,B), single oral 75 mg, fasted, read-out: AUC(0-30 h) GM) was 4.46 µg·h/mL and the AUC(0-t) (po, 75 mg, healthy adults (Parts A,B), single oral 75 mg, fasted, read-out: AUC(0-72 h) GM) was 7.88 µg·h/mL. The AUC(0-inf) (po, 75 mg, healthy adults (Parts A,B), single oral 75 mg, fasted, read-out: AUC(0-inf) GM) was 9.88 µg·h/mL, the AUC(0-t) (po, 75 mg, healthy adults (Parts A,B), single oral 75 mg, fasted, read-out: AUC(0-t) GM) was 9.52 µg·h/mL and the Cmax (po, 75 mg, healthy adults (Parts A,B), single oral 75 mg, fasted, read-out: Cmax GM) was 0.222 µg/mL. It also gave a Vd/F (po, 75 mg, healthy adults (Parts A,B), single oral 75 mg, fasted, read-out: Vz/F GM) of 308 L, a half-life (po, 75 mg, healthy adults (Parts A,B), single oral 75 mg, fasted, read-out: t1/2 Mean (converted)) of 28.9 h and a Tmax (po, 75 mg, healthy adults (Parts A,B), single oral 75 mg, fasted, read-out: tmax Median) of 3 h. It also gave an AUC(0-inf) (po, 100 mg, Elderly, single oral 100 mg, read-out: AUC(0-inf) Geometric LS Means Test) of 21.3 µg·h/mL, a Cmax (po, 100 mg, Elderly, single oral 100 mg, read-out: Cmax Geometric LS Means Test) of 0.543 µg/mL and an AUC(0-inf) (po, 100 mg, Younger Adults (Parts A,B), single oral 100 mg, read-out: AUC(0-inf) Geometric LS Means Reference) of 15 µg·h/mL. For the same compound, the Cmax (po, 100 mg, Younger Adults (Parts A,B), single oral 100 mg, read-out: Cmax Geometric LS Means Reference) was 0.373 µg/mL and the AUC(0-inf) (po, 100 mg, Japanese Subjects (Part D), single oral 100 mg, read-out: AUC(0-inf) GM) was 14.2 µg·h/mL.
